Assay results as given in patent US8969343B2, “Histone demethylase inhibitors” (priority 2012, dated 2015).
Where a name gives a salt, the structure may show the parent alone. Read-outs that look alike come from different tables or passages of the source.

Legend:
JMJD2C = biological target: T1, JMJD2C (Homo sapiens, UniProt Q9H3R0); assay: JMJD2C in vitro enzyme inhibition assay (TR-FRET); assay type: biochemical; settings: 0.3 nM JMJD2C, 300 nM H3K9me3-biotin peptide, 2 μM alpha-ketoglutaric acid
T1 sequence (Q9H3R0 2-372): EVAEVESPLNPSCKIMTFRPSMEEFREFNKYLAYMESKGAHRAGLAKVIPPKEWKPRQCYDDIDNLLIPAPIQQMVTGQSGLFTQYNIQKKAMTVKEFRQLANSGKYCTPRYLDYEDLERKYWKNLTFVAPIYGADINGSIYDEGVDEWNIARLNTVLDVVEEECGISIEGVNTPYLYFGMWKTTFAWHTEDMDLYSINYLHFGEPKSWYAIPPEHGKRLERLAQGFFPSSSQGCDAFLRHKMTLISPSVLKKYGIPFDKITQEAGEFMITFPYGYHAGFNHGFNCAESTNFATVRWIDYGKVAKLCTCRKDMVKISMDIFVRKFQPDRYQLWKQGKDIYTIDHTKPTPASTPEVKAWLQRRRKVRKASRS
Protocol: (§1) This assay determines the ability of a test compound to inhibit Jarid1A, Jarid1B, and JMJD2C demethylase activity.
Reaction product was determined quantitatively by TR-FRET after the addition of detection reagent Phycolink Streptavidin-allophycocyanin (Prozyme) and Europium-anti-di-methylated histone H3 lysine 9 (H3K9me2) antibody (PerkinElmer) in the presence of 5 mM EDTA in LANCE detection buffer (PerkinElmer) at a final concentration of 50 nM and 1 nM, respectively.
The assay reaction was initiated by the following: 2 μl of the mixture of 900 nM H3K9me3-biotin labeled peptide and 6 μM alpha-ketoglutaric acid with 2 μl of 11-point serial diluted inhibitor in 3% DMSO were added to each well of the plate, followed by the addition of 2 μl of 0.9 nM JMJD2C to initiate the reaction. The reaction mixture was incubated at room temperature for 30 minutes, and terminated by the addition of 6 μl of 5 mM EDTA in LANCE detection buffer containing 100 nM Phycolink Streptavidin-allophycocyanin and 2 nM Europium-anti-H3K9me2 antibody.

Jarid1B = biological target: T2, Jarid1B (Homo sapiens, UniProt Q9UGL1); assay: Jarid1B in vitro enzyme inhibition assay (TR-FRET); assay type: biochemical; settings: 0.8 nM Jarid1B, 300 nM H3K4me3-biotin peptide, 2 μM alpha-ketoglutaric acid
T2 sequence (Q9UGL1 2-751): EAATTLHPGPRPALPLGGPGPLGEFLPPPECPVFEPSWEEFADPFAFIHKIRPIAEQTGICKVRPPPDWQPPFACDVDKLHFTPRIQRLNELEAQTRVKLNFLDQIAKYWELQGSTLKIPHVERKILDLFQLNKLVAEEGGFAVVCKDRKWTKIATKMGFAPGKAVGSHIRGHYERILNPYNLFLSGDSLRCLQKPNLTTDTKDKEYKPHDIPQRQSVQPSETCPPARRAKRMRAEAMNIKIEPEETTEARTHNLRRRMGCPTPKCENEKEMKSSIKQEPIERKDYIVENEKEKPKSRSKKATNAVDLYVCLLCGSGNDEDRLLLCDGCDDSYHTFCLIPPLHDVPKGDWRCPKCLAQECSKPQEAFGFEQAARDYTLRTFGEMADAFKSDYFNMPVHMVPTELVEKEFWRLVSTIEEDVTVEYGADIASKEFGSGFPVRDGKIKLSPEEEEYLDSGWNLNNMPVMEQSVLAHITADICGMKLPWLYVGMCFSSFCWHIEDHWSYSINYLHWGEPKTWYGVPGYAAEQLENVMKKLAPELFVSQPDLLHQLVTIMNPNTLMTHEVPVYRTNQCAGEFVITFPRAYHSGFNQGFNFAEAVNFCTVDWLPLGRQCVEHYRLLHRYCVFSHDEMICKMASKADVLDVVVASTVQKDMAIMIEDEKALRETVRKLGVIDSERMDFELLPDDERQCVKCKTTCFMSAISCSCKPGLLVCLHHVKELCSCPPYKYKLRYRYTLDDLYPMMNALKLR
Protocol: as §1
The reaction mixture was incubated at room temperature for 30 minutes, and terminated by the addition of 6 μl of 5 mM EDTA in LANCE detection buffer containing 50 nM Phycolink Streptavidin-allophycocyanin and 2 nM Europium-anti-H3K4me1-2 antibody.

Jarid1A = biological target: T3, Jarid1A (Homo sapiens, UniProt P29375); assay: Jarid1A in vitro enzyme inhibition assay (TR-FRET); assay type: biochemical
T3 construct: purchased BPS Bioscience 50110
T3 sequence (P29375 1-1090): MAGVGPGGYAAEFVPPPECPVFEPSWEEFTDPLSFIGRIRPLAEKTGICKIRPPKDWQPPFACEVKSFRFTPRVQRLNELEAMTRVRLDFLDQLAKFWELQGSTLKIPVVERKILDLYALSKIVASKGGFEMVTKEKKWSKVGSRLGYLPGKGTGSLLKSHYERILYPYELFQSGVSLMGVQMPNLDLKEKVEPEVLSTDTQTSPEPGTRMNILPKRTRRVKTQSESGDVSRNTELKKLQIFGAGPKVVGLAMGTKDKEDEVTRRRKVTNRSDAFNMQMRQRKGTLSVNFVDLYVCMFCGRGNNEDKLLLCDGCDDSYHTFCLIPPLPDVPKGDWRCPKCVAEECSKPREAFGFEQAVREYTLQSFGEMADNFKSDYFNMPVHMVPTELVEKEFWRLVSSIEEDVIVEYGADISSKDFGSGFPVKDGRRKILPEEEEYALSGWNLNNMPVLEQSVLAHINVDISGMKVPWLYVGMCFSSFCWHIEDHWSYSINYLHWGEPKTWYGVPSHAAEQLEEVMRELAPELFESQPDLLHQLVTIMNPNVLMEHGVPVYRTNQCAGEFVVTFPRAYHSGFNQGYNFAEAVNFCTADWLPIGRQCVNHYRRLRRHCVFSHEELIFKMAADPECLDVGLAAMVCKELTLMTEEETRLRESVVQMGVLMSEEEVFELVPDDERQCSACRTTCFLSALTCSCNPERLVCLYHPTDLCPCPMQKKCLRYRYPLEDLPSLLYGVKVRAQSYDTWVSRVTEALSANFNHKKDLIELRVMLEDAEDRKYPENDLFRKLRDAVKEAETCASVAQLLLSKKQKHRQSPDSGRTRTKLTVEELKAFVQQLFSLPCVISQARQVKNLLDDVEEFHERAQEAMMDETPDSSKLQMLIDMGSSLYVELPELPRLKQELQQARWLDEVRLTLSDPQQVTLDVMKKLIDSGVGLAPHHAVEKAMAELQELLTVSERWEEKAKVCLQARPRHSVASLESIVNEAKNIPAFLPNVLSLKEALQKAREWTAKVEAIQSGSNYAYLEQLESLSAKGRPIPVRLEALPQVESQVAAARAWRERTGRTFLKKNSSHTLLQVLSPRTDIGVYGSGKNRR
Protocol: as §1
The enzymatic assay of Jarid1A activity is based upon Time Resolved-Fluorescence Resonance Energy Transfer (TR-FRET) detection. […] The assay reaction was initiated by the following: 2 μl of the mixture of 900 nM H3K4me3-biotin labeled peptide and 6 μM alpha-ketoglutaric acid with 2 μl of 11-point serial diluted inhibitor in 3% DMSO was added to each well of plate, followed by the addition of 2 μl of 3 nM Jarid1A to initiate the reaction. The reaction mixture was incubated at room temperature for 30 minutes, and terminated by the addition of 6 μl of 5 mM EDTA in LANCE detection buffer containing 50 nM Phycolink Streptavidin-allophycocyanin and 2 nM Europium-anti-H3K4me1-2 antibody.

KDM5A/B = assay: In vitro cell-based assay: tri-methyl H3K4 immuno-blotting in ZR-75-1 breast cancer cells; settings: 72 hours, tri-methyl H3K4, relative IC50, read-out: Cellular IC50
Protocol: This quantitative immuno-blotting assay measures the amount tri-methylated histone H3 at amino acid Lysine number 4, a specific substrate […] of the direct enzymatic activity of the histone demethylases KDM5A and KDM5B from extracts of the ZR-75-1 breast cancer cell line.
This assay is a fluorometric immunoassay for the quantification of tri-methyl H3K4 extracted from cells treated with test compound and is used as a measure of the cellular inhibition of KDM5A/B.
Extracts were prepared containing all of the cellular histone material using detergent based lysis and sonication methods. These lysates were subsequently normalized for total protein content using a colorimetric bicinchonic acid assay (MicroBCA Pierce/Thermo Scientific). Normalized cell extracts were then subjected to typical immuno-blotting procedures using NuPage reagents (Life Technologies). […] The amount of tri-methylated lysine 4 of histone H3 was detected using an antibody specific to the tri-methylated state (Cell Signaling Technologies) and quantified on an infrared imager using a densitometry software package (Odyssey CLx, Image Studio, Li-Cor). This background subtracted densitometry value was reported as a ration of the GAPDH amount for that sample and then calculated as a percent of the DMSO treated sample. […]

[1] = 1 nM Jarid1A, 300 nM H3K4me3-biotin peptide, 2 μM alpha-ketoglutaric acid

Cn1nc2ccccc2c1Nc1cnccc1C(=O)O [Example 2, 3-[(2-methyl-2H-indazol-3-yl)amino]pyridine-4-carboxylic acid] gave an IC50 (JMJD2C) of 0.1 to 1 µM, an IC50 (Jarid1B) of 1 to 10 µM and an IC50 (Jarid1A; [1]) of 1 to 10 µM.

CN(C)CCCCCn1nc(Nc2cnccc2C(=O)O)c2cc(F)ccc21 [Example 22] was tested, and the IC50 (JMJD2C) was 0.1 to 1 µM, the IC50 (Jarid1B) was under 0.1 µM and the IC50 (Jarid1A) was under 0.1 µM.

O=C(O)c1ccncc1Nc1nn(Cc2ccccc2)c2ccc(F)cc12 [Example 24, 3-[(1-benzyl-5-fluoro-1H-indazol-3-yl)amino]pyridine-4-carboxylic acid] gave an IC50 (JMJD2C) of 0.1 to 1 µM, an IC50 (Jarid1B) of under 0.1 µM and an IC50 (Jarid1A; [1]) of under 0.1 µM. The IC50 (KDM5A/B) was over 10 µM.

In the case of CNCCCCCn1nc(Nc2cnccc2C(=O)O)c2cc(F)ccc21 [Example 46, 3-({5-fluoro-1-[5-(methylamino)pentyl]-1H-indazol-3-yl}amino)pyridine-4-carboxylic acid, trifluoroacetic acid salt], the IC50 (JMJD2C) is reported as under 0.1 µM, the IC50 (Jarid1B) is reported as under 0.1 µM and the IC50 (Jarid1A; [1]) is reported as under 0.1 µM.

CN(C)CC#CCn1nc(Nc2cnccc2C(=O)O)c2cc(F)ccc21 [Example 49, 3-({1-[4-(dimethylamino)but-2-yn-1-yl]-5-fluoro-1H-indazol-3-yl}amino)pyridine-4-carboxylic acid, trifluoroacetic acid salt] gave an IC50 (JMJD2C) of under 0.1 µM, an IC50 (Jarid1B) of under 0.1 µM and an IC50 (Jarid1A; [1]) of under 0.1 µM.

Compound O=C(O)c1ccncc1Nc1nn(C2CCC(F)(F)CC2)c2ccc(F)cc12 [Example 64, 3-{[1-(4,4-difluorocyclohexyl)-5-fluoro-1H-indazol-3-yl]amino}pyridine-4-carboxylic acid] has an IC50 (JMJD2C) of 1 to 10 µM, an IC50 (Jarid1B) of 1 to 10 µM and an IC50 (Jarid1A; [1]) of 1 to 10 µM.
